PubChem BioAssay (NCI)
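Cells were grown in 96-well plates and exposed to each compound for 48 hours at five concentrations; endpoints were interpolated linearly between bracketing concentrations, or set to the highest concentration if not reached. GI50 = concentration required for 50% inhibition of growth. At the TGI there is no net growth.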

Tests used:
Test in all cases: DTP human tumour cell line panel, 48 h
786-0 renal = system: 786-0 renal
A498 renal = system: A498 renal
A549 NSCLC = system: A549 NSCLC
ACHN renal = system: ACHN renal
BT-549 breast = system: BT-549 breast
CAKI-1 renal = system: CAKI-1 renal
CCRF-CEM leukemia = system: CCRF-CEM leukemia
DU-145 prostate = system: DU-145 prostate
EKVX NSCLC = system: EKVX NSCLC
HCC-2998 colon = system: HCC-2998 colon
HCT-116 colon = system: HCT-116 colon
HCT-15 colon = system: HCT-15 colon
HL-60(TB) leukemia = system: HL-60(TB) leukemia
HOP-62 NSCLC = system: HOP-62 NSCLC
HOP-92 NSCLC = system: HOP-92 NSCLC
HS 578T breast = system: HS 578T breast
HT29 colon = system: HT29 colon
IGROV1 ovarian = system: IGROV1 ovarian
KM12 colon = system: KM12 colon
M14 melanoma = system: M14 melanoma
MALME-3M melanoma = system: MALME-3M melanoma
MDA-MB-231 breast = system: MDA-MB-231 breast
MDA-MB-435 = system: MDA-MB-435
NCI-H226 lung = system: NCI-H226 lung
NCI-H23 lung = system: NCI-H23 lung
NCI-H460 lung = system: NCI-H460 lung
NCI-H522 lung = system: NCI-H522 lung
NCI/ADR-RES ovarian = system: NCI/ADR-RES ovarian
OVCAR-3 ovarian = system: OVCAR-3 ovarian
OVCAR-4 ovarian = system: OVCAR-4 ovarian
OVCAR-5 ovarian = system: OVCAR-5 ovarian
PC-3 prostate = system: PC-3 prostate
RPMI-8226 leukemia = system: RPMI-8226 leukemia
RXF 393 renal = system: RXF 393 renal
SF-268 CNS = system: SF-268 CNS
SF-295 CNS = system: SF-295 CNS
SF-539 CNS = system: SF-539 CNS
SK-MEL-2 melanoma = system: SK-MEL-2 melanoma
SK-MEL-28 melanoma = system: SK-MEL-28 melanoma
SK-MEL-5 melanoma = system: SK-MEL-5 melanoma
SK-OV-3 ovarian = system: SK-OV-3 ovarian
SN12C renal = system: SN12C renal
SNB-19 CNS = system: SNB-19 CNS
SNB-75 CNS = system: SNB-75 CNS
SW-620 colon = system: SW-620 colon
TK-10 renal = system: TK-10 renal
U251 CNS = system: U251 CNS
UACC-257 melanoma = system: UACC-257 melanoma
UACC-62 melanoma = system: UACC-62 melanoma
UO-31 renal = system: UO-31 renal

## Cn1cc(-c2csc(-c3c[nH]c4ccccc34)n2)c2cnccc21
786-0 renal
  GI50: 1900 nM
  TGI: 3.44 µM
A498 renal
  GI50: 1890 nM
  TGI: 3.58 µM
A549 NSCLC
  GI50: 2470 nM
  TGI: 5.88 µM
ACHN renal
  GI50: 1930 nM
  TGI: 3.77 µM
BT-549 breast
  GI50: 1780 nM
  TGI: 3.59 µM
CAKI-1 renal
  GI50: 2080 nM
  TGI: 4.71 µM
CCRF-CEM leukemia
  GI50: 2400 nM
  TGI: 6.42 µM
DU-145 prostate
  GI50: 2240 nM
  TGI: 5.65 µM
EKVX NSCLC
  GI50: 1920 nM
  TGI: 4.61 µM
HCC-2998 colon
  GI50: 2010 nM
  TGI: 3.61 µM
HCT-116 colon
  GI50: 1730 nM
  TGI: 3.22 µM
HCT-15 colon
  GI50: 1790 nM
  TGI: 3.6 µM
HL-60(TB) leukemia
  GI50: 2170 nM
  TGI: 4.77 µM
HOP-62 NSCLC
  GI50: 1790 nM
  TGI: 3.45 µM
HOP-92 NSCLC
  GI50: 1520 nM
  TGI: 3.28 µM
HS 578T breast
  GI50: 2210 nM
  TGI: 4.72 µM
HT29 colon
  GI50: 2010 nM
  TGI: 4.26 µM
IGROV1 ovarian
  GI50: 1730 nM
  TGI: 3.55 µM
KM12 colon
  GI50: 1650 nM
  TGI: 3.41 µM
M14 melanoma
  GI50: 1840 nM
  TGI: 3.46 µM
MALME-3M melanoma
  GI50: 1940 nM
  TGI: 3.62 µM
MDA-MB-231 breast
  GI50: 1670 nM
  TGI: 3.22 µM
MDA-MB-435
  GI50: 1870 nM
  TGI: 3.43 µM
NCI-H226 lung
  GI50: 17.1 µM
  TGI: 45.4 µM
NCI-H23 lung
  GI50: 1770 nM
  TGI: 3.97 µM
NCI-H460 lung
  GI50: 1850 nM
  TGI: 3.61 µM
NCI-H522 lung
  GI50: 2020 nM
  TGI: 3.91 µM
NCI/ADR-RES ovarian
  GI50: 2400 nM
  TGI: 5.44 µM
OVCAR-3 ovarian
  GI50: 1960 nM
  TGI: 3.56 µM
OVCAR-4 ovarian
  GI50: 2300 nM
  TGI: 6.52 µM
OVCAR-5 ovarian
  GI50: 2620 nM
  TGI: 5.52 µM
PC-3 prostate
  GI50: 2400 nM
  TGI: 6.31 µM
RPMI-8226 leukemia
  GI50: 2140 nM
  TGI: 5 µM
RXF 393 renal
  GI50: 1630 nM
  TGI: 3.11 µM
SF-268 CNS
  GI50: 1970 nM
  TGI: 3.93 µM
SF-295 CNS
  GI50: 1810 nM
  TGI: 3.37 µM
SF-539 CNS
  GI50: 1790 nM
  TGI: 3.29 µM
SK-MEL-2 melanoma
  GI50: 2100 nM
  TGI: 3.81 µM
SK-MEL-28 melanoma
  GI50: 1800 nM
  TGI: 3.25 µM
SK-MEL-5 melanoma
  GI50: 1760 nM
  TGI: 3.18 µM
SK-OV-3 ovarian
  GI50: 1900 nM
  TGI: 3.72 µM
SN12C renal
  GI50: 1740 nM
  TGI: 3.31 µM
SNB-19 CNS
  GI50: 2070 nM
  TGI: 4.11 µM
SNB-75 CNS
  GI50: 12.9 µM
  TGI: 26.2 µM
SW-620 colon
  GI50: 1980 nM
  TGI: 3.69 µM
TK-10 renal
  GI50: 2740 nM
  TGI: 5.1 µM
U251 CNS
  GI50: 1950 nM
  TGI: 3.72 µM
UACC-257 melanoma
  GI50: 2000 nM
  TGI: 3.72 µM
UACC-62 melanoma
  GI50: 1820 nM
  TGI: 3.32 µM
UO-31 renal
  GI50: 1640 nM
  TGI: 3.35 µM
